In the supplement of paper PMC10307832:

Columns and labels:
Assay in all cases: relative viability (nuclei count vs DMSO), 5 days (fraction); higher = more cells survive
[1] = compound: CC1=C(CC(=O)O)c2cc(F)ccc2/C1=C\c1ccc([S+](C)[O-])cc1 [Sulindac] + CCNC(=O)c1noc(-c2cc(C(C)C)c(O)cc2O)c1-c1ccc(CN2CCOCC2)cc1 [Luminespib] (partner 0.01 µM)
In short: (§1)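 The day after seeding in 1536-well plates, lung cancer cell lines were treated by pin tool with a single drug, or with a fixed anchor-drug dose together with five library-drug doses (not always all listed) in √10 steps. After 5 days, a combined fix-and-stain solution (final 0.05% Triton X-100, 1% formaldehyde, 1 ug/ml Hoechst) was added. Nuclei counted on 4× images gave relative viability as treated counts over vehicle counts, reported as the median of duplicate plates.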

[2] = compound: CC1=C(CC(=O)O)c2cc(F)ccc2/C1=C\c1ccc([S+](C)[O-])cc1 [Sulindac] + Nc1nc2[nH]cc(CCc3ccc(C(=O)N[C@@H](CCC(=O)O)C(=O)O)cc3)c2c(=O)[nH]1 [Pemetrexed] (partner 0.2 µM)
In short: as §1

[3] = compound: CN[C@@H]1C[C@H]2O[C@@](C)([C@@H]1OC)n1c3ccccc3c3c4c(c5c6ccccc6n2c5c31)C(=O)NC4 [Staurosporine] + COc1cc2c(Oc3ccc(NC(=O)C4(C(=O)Nc5ccc(F)cc5)CC4)cc3F)ccnc2cc1OCCCN1CCOCC1 [Foretinib] (partner 0.25 µM)
In short: as §1

[4] = compound: O=c1[nH]cc(F)c(=O)[nH]1 [5-Fluorouracil] + COc1cccc2cc(-c3nc([C@H]4CC[C@H](C(=O)O)CC4)n4ncnc(N)c34)[nH]c12 [OSI-027] (partner 0.5 µM)
In short: as §1

Row | Cell Line | relative viability ([1]; first compound 0.08 µM) | relative viability ([1]; first compound 0.253 µM) | relative viability ([1]; first compound 0.8 µM) | relative viability ([1]; first compound 2.53 µM) | relative viability ([1]; first compound 8 µM) | relative viability ([2]; first compound 0.08 µM) | relative viability ([2]; first compound 0.253 µM) | relative viability ([2]; first compound 0.8 µM) | relative viability ([2]; first compound 2.53 µM) | relative viability ([2]; first compound 8 µM) | relative viability ([3]; first compound 0.005 µM) | relative viability ([3]; first compound 0.01581 µM) | relative viability ([3]; first compound 0.05 µM) | relative viability ([3]; first compound 0.1581 µM) | relative viability ([3]; first compound 0.5 µM) | relative viability ([4]; first compound 0.02 µM) | relative viability ([4]; first compound 0.2 µM) | relative viability ([4]; first compound 0.6325 µM) | relative viability ([4]; first compound 2 µM)
1 | NCI-H2085 | 0.39 | 0.414 | 0.426 | 0.428 | 0.36 | 0.921 | 0.903 | 0.766 | 0.898 | 0.897 | 0.516 | 0.437 | 0.324 | 0.195 | 0.26 | 0.69 | 0.676 | 0.771 | 0.502
2 | PC-3 [JPC-3] | 0.663 | 0.799 | 0.528 | 0.656 | 0.771 | 1.07 | 1.04 | 0.738 | 1.07 | 1.19 | 1.07 | 0.483 | 0.525 | 0.359 | 0.4 | 0.824 | 0.805 | 0.726 | 0.625
3 | NCI-H1563 | 0.449 | 0.553 | 0.535 | 0.551 | 0.498 | 0.736 | 0.748 | 0.683 | 0.758 | 0.945 | 0.696 | 0.612 | 0.575 | 0.611 | 0.463 | 0.679 | 0.791 | 0.7 | 0.696
4 | NCI-H838 | 0.231 | 0.277 | 0.243 | 0.211 | 0.307 | 0.248 | 0.255 | 0.233 | 0.24 | 0.258 | 0.51 | 0.228 | 0.208 | 0.185 | 0.0995 | 0.42 | 0.373 | 0.252 | 0.209
5 | NCI-H1755 | 0.546 | 0.829 | 0.399 | 0.536 | 0.486 | 0.421 | 0.448 | 0.631 | 0.444 | 0.462 | 0.729 | 0.471 | 0.261 | 0.189 | 0.164 | 0.703 | 0.702 | 0.389 | 0.264
6 | NCI-H1650 | 0.201 | 0.197 |  | 0.192 | 0.211 | 0.443 | 0.391 | 0.349 | 0.377 | 0.385 | 0.927 | 0.586 | 0.201 | 0.216 | 0.133 | 0.515 | 0.496 | 0.383 | 0.349
7 | NCI-H650 | 0.796 | 0.87 | 0.659 | 0.644 | 0.935 | 1 | 0.88 | 0.845 | 0.932 | 1.09 | 0.687 | 0.273 | 0.257 | 0.289 | 0.256 | 0.493 | 0.357 | 0.362 | 0.267
8 | NCI-H1944 | 0.753 | 0.838 | 0.706 | 0.864 | 0.963 | 0.701 | 0.636 | 0.412 | 0.582 | 0.722 | 0.756 |  | 0.431 | 0.39 | 0.251 | 0.48 | 0.423 | 0.296 | 0.188
9 | LK-2 | 0.2 | 0.18 |  |  | 0.167 | 0.315 | 0.29 | 0.228 | 0.221 | 0.293 | 1.07 |  | 1.09 | 0.437 | 0.409 | 0.196 | 0.188 | 0.199 | 0.165
10 | HCC-15 | 0.588 | 0.351 | 0.304 | 0.431 | 0.389 | 0.213 | 0.223 | 0.209 | 0.22 | 0.235 | 0.975 |  | 0.483 | 0.13 | 0.107 | 0.781 | 0.718 | 0.442 | 0.311
11 | PC-14 | 0.164 | 0.152 | 0.15 | 0.152 | 0.127 | 0.122 | 0.118 | 0.162 | 0.13 | 0.147 | 0.929 | 0.718 | 0.38 | 0.102 | 0.0787 | 0.876 | 0.976 | 0.747 | 0.296
12 | HOP-62 | 1.34 | 0.974 | 0.708 | 0.977 | 0.942 | 0.412 | 0.27 | 0.31 | 0.258 | 0.389 | 0.801 | 0.233 | 0.142 | 0.125 | 0.119 | 0.87 | 0.938 | 0.846 | 0.633
13 | NCI-H322M | 0.887 | 0.819 | 0.644 | 0.848 | 0.881 | 0.646 | 0.642 | 0.597 | 0.552 | 0.666 | 0.95 | 0.759 | 0.536 | 0.357 | 0.288 | 0.534 | 0.563 | 0.486 | 0.449
14 | NCI-H1395 | 0.713 | 0.68 | 0.611 | 0.709 | 0.643 | 0.931 | 1.02 | 0.828 | 0.855 | 1.12 | 0.943 | 0.812 | 0.453 | 0.416 | 0.27 | 0.505 | 0.738 | 0.579 | 0.684
15 | NCI-H661 | 0.969 | 0.97 | 0.852 | 0.9 | 0.957 | 0.953 | 0.931 | 0.869 | 0.922 | 0.981 | 1.13 | 0.571 | 0.481 | 0.27 | 0.216 | 0.674 |  | 0.661 | 0.691
16 | NCI-H1734 | 0.146 | 0.186 |  | 0.203 | 0.23 | 0.477 | 0.421 | 0.439 | 0.44 | 0.452 | 0.577 | 0.453 | 0.317 | 0.137 | 0.156 | 0.58 | 0.655 | 0.513 | 0.398
17 | EKVX | 0.755 | 0.792 | 0.768 | 0.887 | 0.897 | 0.471 | 0.421 | 0.323 | 0.423 | 0.433 | 0.355 | 0.133 | 0.379 | 0.246 | 0.123 |  |  | 0.148 | 0.134
